molecular target: T1, human IBAT (Homo sapiens, UniProt Q12908); experiment: In vitro assay of compounds that inhibit IBAT-mediated uptake of [14C]-taurocholate (TC) in H14 cells; assay type: cell-based; details: Table 7, 1,5-benzothiazepines; 50% inhibitory concentrations by the biological evaluation procedures
T1 construct: expressed in transfected cells; host or cells: Baby hamster kidney (BHK) cells, H14 clone
T1 sequence (Q12908 1-348): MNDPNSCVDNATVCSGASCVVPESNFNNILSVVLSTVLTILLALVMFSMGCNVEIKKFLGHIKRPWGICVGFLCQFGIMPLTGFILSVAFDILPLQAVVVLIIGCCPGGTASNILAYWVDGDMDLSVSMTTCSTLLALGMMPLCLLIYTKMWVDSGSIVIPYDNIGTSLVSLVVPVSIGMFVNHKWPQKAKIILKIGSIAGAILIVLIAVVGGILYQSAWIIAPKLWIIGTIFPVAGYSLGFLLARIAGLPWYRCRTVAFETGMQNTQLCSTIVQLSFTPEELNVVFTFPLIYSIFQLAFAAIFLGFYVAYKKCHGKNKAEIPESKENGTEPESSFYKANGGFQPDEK
Method: In Vitro Assay of Compounds That Inhibit IBAT-mediated Uptake of [^14C]-Taurocholate (TC) in H14 Cells
Baby hamster kidney cells (BHK) transfected with the cDNA of human IBAT (Hl4 cells) are seeded in 96 well Top-Count tissue culture plates at 60,000 cells/well for assays run within 24 hours of seeding, 30,000 cells/well for assays run within 48 hours, and 10,000 cells/well for assays run within 72 hours.
On the day of assay, the cell monolayer is gently washed once with […] (Dulbecco's Modified Eagle's medium with 4.5 g/L glucose plus 0.2% (w/v) fatty acid free bovine serum albumin ((FAF)BSA). To each well […] of a two-fold concentrate of test compound in assay buffer is added along with […] of […] [^14C]-taurocholate in assay buffer (final concentration of […] [^14C]-taurocholate).
The cell culture plates are incubated 2 hours at 37° C. prior to gently washing each well twice with […] 4° C. Dulbecco's phosphate-buffered saline (PBS) containing 0.2% (w/v) (FAF)BSA. The wells are then gently washed once with […] 4° C. PBS without (FAF)BSA. To each […] of liquid, scintillation counting fluid is added.
The plates are heat sealed and shaken for 30 minutes at room temperature prior to measuring the amount of radioactivity in each well on a Packard Top-Count instrument.

| IC50 [nM] | SMILES |
| --- | --- |
| > 1000 | CCCCC1(CCCC)CN(c2ccc(OCC[N+](CC)(CC)CC)cc2)c2cc(N(C)C)ccc2S(=O)(=O)C1 [PHA00400884E] |
| 320 | CCCCC1(CCCC)CN(c2ccc(OC)cc2)c2cc(F)ccc2S(=O)(=O)C1 [SC-86288] |
| 26400 | CCCCC1(CCCC)CN(c2ccc(OCCN(CC)CC)cc2)c2cc(N(C)C)ccc2S(=O)(=O)C1 [PHA00400670] |
| 289 | CCCCC1(CCCC)CN(c2ccc(OC)cc2)c2cc(N(C)C)ccc2S(=O)(=O)C1 [SC-86287] |
| 31 | CCCCC1(CCCC)CN(c2ccc(OCc3ccc(C[N+]45CCN(CC4)CC5)cc3)cc2)c2cc(N(C)C)ccc2S(=O)(=O)C1 [PHA00384640E] |

| SMILES | IC50 [nM] |
| --- | --- |
| CCCCC1(CCCC)CN(c2ccc(OCCOCCOCC[N+](CC)(CC)CC)cc2)c2cc(N(C)C)ccc2S(=O)(=O)C1 [PHA00400885E] | 300 |

same assay, conditions: Table 8, 1,4 and 1,5 benzothiazipines; additional IC50 values

| IC50 [nM] | SMILES |
| --- | --- |
| 15100 | CCCCC1(CCCC)CN(c2ccc(OCC[N+](CC)(CC)CC)cc2)c2cc(N(C)C)ccc2S(=O)(=O)C1 [Compound 7] |
| 30 | CCCCC1(CCCC)CN(c2ccc(OCc3ccc(C[N+]45CCN(CC4)CC5)cc3)cc2)c2cc(N(C)C)ccc2S(=O)(=O)C1 [Compound 9, 1-[[4-[[4-[3,3-Dibutyl-7-(dimethylamino)-2,3,4,5-tetrahydro-1,1-dioxido-1,5-benzothiazepin-5-yl]phenoxy]methyl]phenyl]methyl]-4-aza-1-azoniabicyclo[2.2.2]octane Chloride] |

More lines, now with the values behind:

| SMILES | IC50 [nM] |
| --- | --- |
| CCCCC1(CCCC)CN(c2ccc(OCCOCCOCC[N+](CC)(CC)CC)cc2)c2cc(N(C)C)ccc2S(=O)(=O)C1 [Compound 8, N-[2-[2-[2-[4-[3,3-Dibutyl-7-(dimethylamino)-2,3,4,5-tetrahydro-1,1-dioxido-1,5-benzothiazepin-5-yl]phenoxy]ethoxy]ethoxy]ethoxy]-NNN-triethylaminium Iodide] | 300 |
| CCCCC1(CCCC)CS(=O)(=O)c2ccc(N(C)C)cc2[C@@H](c2ccc(OCC[N+](CC)(CC)CC)cc2)N1 (racemic) [Compound 3, N-[2-[4-[3,3-Dibutyl-7-(dimethylamino)-2,3,4,5-etrahydro-1,1-dioxido-1,4-benzothiazepin-5-yl]phenoxy]ethyl]-N,N,N-triethylaminium Iodide] | 2090 |
| CCCCC1(CCCC)CS(=O)(=O)c2ccc(N(C)C)cc2[C@@H](c2ccc(OCc3ccc(C[N+]45CCN(CC4)CC5)cc3)cc2)N1 (racemic) [Compound 5] | 22 |
| CCCCC1(CCCC)CN(c2ccc(OC)cc2)c2cc(N(C)C)ccc2S(=O)(=O)C1 [Compound 6, 3,3-Dibutyl-2,3,4,5-tetrahydro-7-dimethylamino-5-(4′-methoxyphenyl)-1,5-benzothiazepine1,1-dioxide] | 289 |
| CCCC[C@]1(CC)CS(=O)(=O)c2ccccc2[C@@H](c2ccccc2)N1 [Compound 1] | 600 |
| CCCCC1(CCCC)CS(=O)(=O)c2ccc(N(C)C)cc2[C@@H](c2ccc(OCCOCCOCC[N+](CC)(CC)CC)cc2)N1 (racemic) [Compound 4, N-[2-[2-[2-[4-[3,3-Dibutyl-7-(dimethylamino)-2,3,4,5-tetrahydro-1,1-dioxido-1 4-benzothiazepin-5-yl]phenoxy]ethoxy]ethoxy]ethoxy]-N,N,N-triethylaminium Iodide] | 74 |
